The values below come from article PMC8160813, “Design, Synthesis, and Evaluation of Dihydropyranopyrazole Derivatives as Novel PDE2 Inhibitors for the Treatment of Alzheimer’s Disease” (Molecules, 2021).

The assay addresses T1, PDE2A (catalytic domain, 580–919) (Homo sapiens, UniProt O00408).
T1 construct: made in house; host or cells: E. coli BL21 (CodonPlus)
The experiment in a line: In vitro PDE2 enzymatic inhibition assay (3H-cGMP substrate). The note with it: for inhibition at 0.1 µM / inhibition at 0.5 µM / Inhibition Ratio (%) 0.5 μM: PDE2; for inhibition at 0.1 µM: compound at 0.1 μM, read-out: Inhibition Ratio (%) 0.1 μM; for inhibition at 0.5 µM / Inhibition Ratio (%) 0.5 μM: compound at 0.5 μM; for inhibition at 0.5 µM: read-out: Inhibition Ratio (%) 0.5 μM; for IC50: means ± SD of three experiments, 3H-cGMP, 25 °C, 15 min, read-out: IC50 (nM) against PDE2. The format is biochemical. Here is the method: Purification and expression of the recombinant pET15b-PDE2A plasmid (catalytic domain, 580–919) was performed following our previously reported method. The plasmid pET15b-PDE2A (catalytic domain, 580–919) was transferred to thawed competent E. coli BL21 cells (CodonPlus, Agilent Technologies, Santa Clara, CA, USA), which were grown in 2XYT medium with 100 μg/mL ampicillin and 20 μg/mL chloramphenicol at 37 °C until OD600 = 0.6–0.8. Then, 0.1 mM isopropylthiogalactoside was added for induction, and protein expression was induced by continuing to grow the cells at 16 °C for 24 h. After that, bacteria were collected by centrifugation and frozen overnight at −20 °C. The bacteria containing the recombinant plasmid of the target protein were subjected to cell disruption and passed through a Ni-NTA agarose affinity column, Q-Sepharose ion-exchange column and other steps. The purity can be 95% or more, and a typical purification batch produces 10–20 mg of PDE2A protein from 1.0 L of cell culture.
Using the appropriate concentration of ^3H-cGMP as the substrate, different compound solutions were added to the test group, DMSO was added to the negative control and blank control groups, and EHNA was added to the positive control group, followed by protein solution (the proteins were all diluted with Assay Buffer); Assay Buffer was added to the blank group. The enzymatic reaction was performed at room temperature (25 °C) for 15 min, and then, 0.2 M ZnSO4 was added to inactivate PDE2 and to stop the reaction. Then, 0.2 N Ba(OH)2 solution was added to precipitate the reaction product, and unreacted ^3H-cGMP remained in the supernatant. After mixing the system, it was centrifuged. The radioactivity of the supernatant was measured with a liquid scintillation counter, and the inhibitory activity of the compound against PDE2 was calculated. The above test was repeated three times (the IC50 test generally used 9 concentrations, and the single-point test was directly diluted with DMSO to the required concentration).

T1 sequence (O00408 580-919): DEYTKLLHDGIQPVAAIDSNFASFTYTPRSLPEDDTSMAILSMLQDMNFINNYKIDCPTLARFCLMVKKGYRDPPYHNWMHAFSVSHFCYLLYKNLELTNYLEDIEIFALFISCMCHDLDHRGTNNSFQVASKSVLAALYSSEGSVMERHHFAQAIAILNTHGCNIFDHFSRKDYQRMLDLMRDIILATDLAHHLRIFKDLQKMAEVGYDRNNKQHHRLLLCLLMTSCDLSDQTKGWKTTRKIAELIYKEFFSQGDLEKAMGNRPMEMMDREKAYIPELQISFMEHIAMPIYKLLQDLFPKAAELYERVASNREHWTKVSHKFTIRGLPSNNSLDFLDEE

For orientation: IC50 means the concentration at which inhibition is half-maximal. For `COc1ccc(OCc2ccc(C(F)(F)F)cc2)c(C2C(C#N)=C(N)Oc3[nH]nc(C)c32)c1` (racemic) [Compound 11h, 6-Amino-4-(5-methoxy-2-((4-(trifluoromethyl)benzyl)oxy)phenyl)-3-methyl-1,4-dihydropyrano[2,3-c]pyrazole-5-carbonitrile], the inhibition at 0.1 µM was determined as 63.3%, the inhibition at 0.5 µM came to 87.3% and the IC50 turned out to be 75.5 ± 2 nM.

For `CCCCCC[C@@H]([C@@H](C)O)n1cnc2c(N)ncnc21` (racemic) [EHNA, erythro-9-(2-hydroxy-3-nonyl) adenine, reference compound], the IC50 came out at 2460 nM.

Regarding `COc1ccc(OCc2ccc(C(F)(F)F)cc2)c(C2C(C#N)=C(N)Oc3[nH]nc(C)c32)c1` (single isomer, unassigned; (-)) [(−)-11h], the inhibition at 0.5 µM was determined as 87.3%. For the same molecule, the “PDE2 inhibitory activity of resolved isomer (in words)” value (after chiral resolution of 11h) was “almost inactive”.

For `COc1ccc(C2C(C#N)=C(N)Oc3[nH]nc(C)c32)cc1OCc1ccc(Cl)cc1` (stereo not drawn) [4a (LZ77), 6-Amino-4-(3-((4-chlorobenzyl)oxy)-4-methoxyphenyl)-3-methyl-1,4-dihydropyrano[2,3-c]pyrazole-5-carbonitrile], the inhibition at 0.1 µM came out at 18.2%, the inhibition at 0.5 µM was determined as 57.2% and the IC50 came out at 407 ± 37.7 nM.

As to `COc1ccc([C@H]2C(C#N)=C(N)Oc3[nH]nc(C)c32)cc1OCc1ccc(Cl)cc1` [(R)-LZ77], the inhibition at 0.1 µM turned out to be 30.4%, the inhibition at 0.5 µM stood at 67.5% and the IC50 came to 261 ± 11.2 nM.

Regarding `COc1cc(OCc2ccc(C(F)(F)F)cc2)cc(C2C(C#N)=C(N)Oc3[nH]nc(C)c32)c1` (stereo not drawn) [Compound 4b, 6-Amino-4-(3-methoxy-5-((4-(trifluoromethyl)benzyl)oxy)phenyl)-3-methyl-1,4-dihydropyrano[2,3-c]pyrazole-5-carbonitrile], the inhibition at 0.5 µM was found to be 14.1%.

As for `COc1cc(OCc2ccc(Cl)cc2)cc(C2C(C#N)=C(N)Oc3[nH]nc(C)c32)c1` (stereo not drawn) [Compound 4c, 6-Amino-4-(3-((4-chlorobenzyl)oxy)-5-methoxyphenyl)-3-methyl-1,4-dihydropyrano[2,3-c]pyrazole-5-carbonitrile], the inhibition at 0.5 µM was 43.4%.

Take `COc1ccc(OC(=O)c2ccc(OC(F)(F)F)cc2)c(C2C(C#N)=C(N)Oc3[nH]nc(C)c32)c1` (stereo not drawn) [Compound 8a, 2-(6-Amino-5-cyano-3-methyl-1,4-dihydropyrano[2,3-c]pyrazol-4-yl)-4-methoxyphenyl-4-(trifluoromethoxy)benzoate]: the inhibition at 0.5 µM amounted to 13.4%.

Turning to `COc1ccc(OC(=O)c2ccc(C(F)(F)F)cc2)c(C2C(C#N)=C(N)Oc3[nH]nc(C)c32)c1` (stereo not drawn) [Compound 8b, 2-(6-Amino-5-cyano-3-methyl-1,4-dihydropyrano[2,3-c]pyrazol-4-yl)-4-methoxyphenyl-4-(trifluoromethyl)benzoate], the inhibition at 0.5 µM worked out at 39.1%.

With `COc1ccc(OC(=O)CCc2ccc(Cl)cc2)c(C2C(C#N)=C(N)Oc3[nH]nc(C)c32)c1` (stereo not drawn) [Compound 8c, 2-(6-Amino-5-cyano-3-methyl-1,4-dihydropyrano[2,3-c]pyrazol-4-yl)-4-methoxyphenyl-3-(4-chlorophenyl)propanoate], the inhibition at 0.5 µM came to 4.12%.

With `COc1ccc(OC(=O)CCCc2ccc(Cl)cc2)c(C2C(C#N)=C(N)Oc3[nH]nc(C)c32)c1` (stereo not drawn) [Compound 8d, 2-(6-Amino-5-cyano-3-methyl-1,4-dihydropyrano[2,3-c]pyrazol-4-yl)-4-methoxyphenyl-4-(4-chlorophenyl)butanoate], the inhibition at 0.5 µM worked out at 6.12%.

Take `COc1ccc(COc2cc(OC)ccc2C2C(C#N)=C(N)Oc3[nH]nc(C)c32)cc1` (stereo not drawn) [Compound 11a, 6-Amino-4-(4-methoxy-2-((4-methoxybenzyl)oxy)phenyl)-3-methyl-1,4-dihydropyrano[2,3-c]pyrazole-5-carbonitrile]: the inhibition at 0.5 µM was found to be 27%.

As for `COc1ccc(C2C(C#N)=C(N)Oc3[nH]nc(C)c32)c(OCc2ccccc2)c1` (stereo not drawn) [Compound 11b, 6-Amino-4-(2-(benzyloxy)-4-methoxyphenyl)-3-methyl-1,4-dihydropyrano [2,3-c] pyrazole-5-carbonitrile], the inhibition at 0.5 µM was 14.3%.

In the case of `COc1ccc(C2C(C#N)=C(N)Oc3[nH]nc(C)c32)c(OCc2ccc(Cl)cc2)c1` (stereo not drawn) [Compound 11c, 6-Amino-4-(2-((4-chlorobenzyl)oxy)-4-methoxyphenyl)-3-methyl-1,4-dihydropyrano[2,3-c]pyrazole-5-carbonitrile], the inhibition at 0.5 µM stood at 29%.

Consider `COc1ccc(OCc2ccccc2)c(C2C(C#N)=C(N)Oc3[nH]nc(C)c32)c1` (stereo not drawn) [Compound 11d, 6-Amino-4-(2-(benzyloxy)-5-methoxyphenyl)-3-methyl-1,4-dihydropyrano [2,3-c] pyrazole-5-carbonitrile], for which the inhibition at 0.5 µM turned out to be 17.7%.

Regarding `COc1ccc(COc2ccc(OC)cc2C2C(C#N)=C(N)Oc3[nH]nc(C)c32)cc1` (stereo not drawn) [Compound 11e, 6-Amino-4-(5-methoxy-2-((4-methoxybenzyl)oxy)phenyl)-3-methyl-1,4-dihydropyrano[2,3-c]pyrazole-5-carbonitrile], the inhibition at 0.1 µM was 17.5%, the inhibition at 0.5 µM is 48% and the IC50 is 458 ± 16.2 nM.

As for `COc1ccc(OCc2ccc(Cl)cc2)c(C2C(C#N)=C(N)Oc3[nH]nc(C)c32)c1` (stereo not drawn) [Compound 11f, 6-Amino-4-(2-((4-chlorobenzyl)oxy)-5-methoxyphenyl)-3-methyl-1,4-dihydropyrano[2,3-c]pyrazole-5-carbonitrile], the inhibition at 0.1 µM is 48.1%, the inhibition at 0.5 µM amounted to 79.2% and the IC50 was 115 ± 1.3 nM.

As for `COc1ccc(OCc2ccc(F)cc2)c(C2C(C#N)=C(N)Oc3[nH]nc(C)c32)c1` (stereo not drawn) [Compound 11g, 6-Amino-4-(2-((4-fluorobenzyl)oxy)-5-methoxyphenyl)-3-methyl-1,4-dihydropyrano[2,3-c]pyrazole-5-carbonitrile], the inhibition at 0.1 µM stood at 15.1%, the inhibition at 0.5 µM came out at 44.4% and the IC50 came to 807 ± 15.3 nM.

In the case of `COc1ccc(OCc2ccc(OC(F)(F)F)cc2)c(C2C(C#N)=C(N)Oc3[nH]nc(C)c32)c1` (stereo not drawn) [Compound 11i, 6-Amino-4-(5-methoxy-2-((4-(trifluoromethoxy)benzyl)oxy)phenyl)-3-methyl-1,4-dihydropyrano[2,3-c]pyrazole-5-carbonitrile], the inhibition at 0.5 µM came out at 48.8%.

As for `Cc1n[nH]c2c1C(c1cc(C(C)(C)C)ccc1OCc1ccc(C(F)(F)F)cc1)C(C#N)=C(N)O2` (stereo not drawn) [Compound 11j, 6-Amino-4-(5-(tert-butyl)-2-((4-(trifluoromethyl)benzyl)oxy)phenyl)-3-methyl-1,4-dihydropyrano[2,3-c]pyrazole-5-carbonitrile], the “Inhibition Ratio (%) 0.5 μM” value is given as “no inhibition” and the inhibition at 0.5 µM was 0%.

With `Cc1ccc(OCc2ccc(C(F)(F)F)cc2)c(C2C(C#N)=C(N)Oc3[nH]nc(C)c32)c1` (stereo not drawn) [Compound 11k, 6-Amino-3-methyl-4-(5-methyl-2-((4-(trifluoromethyl)benzyl)oxy)phenyl)-1,4-dihydropyrano[2,3-c]pyrazole-5-carbonitrile], the inhibition at 0.1 µM was found to be 38.3%, the inhibition at 0.5 µM is 72% and the IC50 stood at 154 ± 3.3 nM.

As for `Cc1n[nH]c2c1C(c1cc(OCc3ccc(C(F)(F)F)cc3)ccc1OCc1ccc(C(F)(F)F)cc1)C(C#N)=C(N)O2` (stereo not drawn) [Compound 11l, 6-Amino-4-(2,5-bis((4-(trifluoromethyl)benzyl)oxy)phenyl)-3-methyl-1,4-dihydropyrano[2,3-c]pyrazole-5-carbonitrile], the inhibition at 0.5 µM is 13.4%.

Turning to `Cc1n[nH]c2c1C(c1cc(O)ccc1OCc1ccc(C(F)(F)F)cc1)C(C#N)=C(N)O2` (stereo not drawn) [Compound 11m, 6-Amino-4-(5-hydroxy-2-((4-(trifluoromethyl)benzyl)oxy)phenyl)-3-methyl-1,4-dihydropyrano[2,3-c]pyrazole-5-carbonitrile], the “Inhibition Ratio (%) 0.5 μM” value is “no inhibition” and the inhibition at 0.5 µM was found to be 0%.

Take `COc1ccc(OCCc2ccc(C(F)(F)F)cc2)c(C2C(C#N)=C(N)Oc3[nH]nc(C)c32)c1` (stereo not drawn) [Compound 11n, 6-Amino-4-(5-methoxy-2-(4-(trifluoromethyl)phenethoxy)phenyl)-3-methyl-1,4-dihydropyrano[2,3-c]pyrazole-5-carbonitrile]: the inhibition at 0.5 µM amounted to 20.7%.

`COc1ccc(OCCCc2ccc(C(F)(F)F)cc2)c(C2C(C#N)=C(N)Oc3[nH]nc(C)c32)c1` (stereo not drawn) [Compound 11o, 6-Amino-4-(5-methoxy-2-(3-(4-(trifluoromethyl)phenyl)propoxy)phenyl)-3-methyl-1,4-dihydropyrano[2,3-c]pyrazole-5-carbonitrile]: the inhibition at 0.5 µM came out at 8.2%.
